Laboratory results published in patent publication US8653134B2, “Hydroxyphenol derivatives, processes for the preparation thereof, pharmaceutical compositions them, and therapeutic uses thereof” (Merck Patent GmbH, priority 2005, dated 2014).

Columns and labels:
[1] = target: T1, chimeric protein PPARγ-Gal4 (Homo sapiens, UniProt P37231); assay: PPARγ-Gal4 transactivation test (luciferase reporter) in cotransfected CV-1 cells; assay type: cell-based
T1 construct: expressed in transfected cells; host or cells: CV-1 cells (monkey kidney cells)
T1 sequence (P37231 238-503 limits assumed): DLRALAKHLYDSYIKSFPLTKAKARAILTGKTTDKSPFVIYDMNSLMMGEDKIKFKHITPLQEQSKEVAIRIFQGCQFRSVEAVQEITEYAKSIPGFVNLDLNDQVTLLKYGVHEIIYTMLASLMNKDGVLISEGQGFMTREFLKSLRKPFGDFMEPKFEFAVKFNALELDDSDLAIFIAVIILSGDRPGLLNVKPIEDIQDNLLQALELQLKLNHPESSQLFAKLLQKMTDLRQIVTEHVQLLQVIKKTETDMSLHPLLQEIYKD
Protocol: The measurement of the PPAR activation was performed according to a technique described by Lehmann et al. (J. Biol. Chem., 270, (1995), 12953-12956). CV-1 cells (monkey kidney cells) are cotransfected with an expression vector for the chimeric protein PPARγ-Gal4 and with a “reporter” plasmid that allows expression of the luciferase gene placed under the control of a promoter comprising Gal4 response elements. The cells are seeded in 96-well microplates and cotransfected using a commercial reagent with the reporter plasmid (pG5-tk-pGL3) and the expression vector for the chimeric protein (PPARγ-Gal4). After incubation for 4 hours, whole culture medium (comprising 10% foetal calf serum) is added to the wells. After 24 hours, the medium is removed and replaced with whole medium comprising the test products. The products are left in contact with the cells for 18 hours. The cells are then lysed and the luciferase activity is measured using a luminometer. A PPARγ activation factor can then be calculated by means of the activation of the expression of the reporter gene induced by the product (relative to the control cells that have received no product). In the absence of the PPARγ ligand binding domain (vector expressing Gal4 alone), the luciferase activity measured in the presence of an agonist is zero. The transactivation test using the expression of a chimeric protein Gal-4-PPARγ makes it possible to determine also whether an agonist functions as a “full” agonist or as a “partial” agonist in this system. An agonist is “partial” in this system if it induces a weaker response, i.e. it has lower efficacy, than rosiglitazone, which is a “full” agonist. In concrete terms, in our system, the transactivation obtained at the plateau with a partial agonist will be between 20% and 50% of the maximum response (efficacy) at the plateau of rosiglitazone.

SMILES | Concentration to reach the maximum stimulation of the PPARγ chimeric protein ([1]; CV-1 cells, Gal-4-PPARγ transactivation) | Emax ([1]; transactivation at the plateau as % of the maximum response (efficacy) of rosiglitazone, CV-1 cells, read-out: Maximum stimulation of the PPARγ chimeric protein obtained with rosiglitazone) | melting point | Activation factor of the chimeric protein PPARγ-Gal4 ([1]; concentration 10 μM, CV-1 cells (monkey kidney cells), 18 hours contact, relative to control cells without agonist (=1))
CCCCCOc1cc2c(cc1OCc1cccc(C(=O)O)c1)C(=O)CC2 [Example 4, 3-(3-Oxo-6-pentyloxyindan-5-yloxymethyl)benzoic Acid] | 12.5 µM | 28% | 190 °C | –
CCCCCCOc1cc2c(cc1OCCCC(=O)O)C(=O)CC2 [Example 7, 4-(6-hexyloxy-3-oxoindan-5-yloxy)butanoic acid] | – | – | – | 9.10
